This is an account of results in ChEMBL document CHEMBL1201862, “PubChem BioAssay data set” (2004).

Test systems include 786-0; A549; HCT-15; HOP-62; MDA-MB-231; MDA-N; Malme-3M; NCI-H460; OVCAR-5; OVCAR-8; SF-295; SNB-19; SNB-75; SR; SW-620; UACC-62; UO-31; NCI-H226; NCI-H522.
What all share (assay): inhibition of tumour cell growth, NCI panel, 48 h

Structures are written as SMILES.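 Growth conditions: 96-well plates. Treatment: test compound, 48 hours, 5 concentrations. Analysis: linear interpolation between bracketing concentrations; unreached endpoints set to highest concentration. Here, GI50 denotes the concentration required for 50% inhibition of growth.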 Activity calls are given as the source filed them. No stated cut-off is given here; in the data, active = GI50 up to about 1.1 µM and inactive = higher.

`OC1(c2ccc(Cl)cc2)c2ccc(CN3CCCC3)cc2C2=NCCN21` (configuration not stated): the GI50 was 15.2 µM (inactive) with 786-0; 17.1 µM (inactive) with A549; 17.3 µM with HCT-15; 15.6 µM (inactive) in the experiment on HOP-62; 13.9 µM (inactive) in the experiment with MDA-MB-231; 10.8 µM (inactive) with MDA-N. In addition, the GI50 in the experiment on Malme-3M was 11 µM (inactive); in the experiment on NCI-H460, 14.6 µM (inactive); in the experiment on OVCAR-5, 16.7 µM (inactive); in the experiment on OVCAR-8, 15.4 µM (inactive); with SF-295, 14.6 µM (inactive); with SNB-19 it was 16.6 µM (inactive). Moreover, the GI50 is 3.16 µM (inactive) in the experiment with SNB-75; 10.4 µM (inactive) with SR; 13.3 µM (inactive) with SW-620; 14.7 µM (inactive) in the experiment with UACC-62; 14.1 µM (inactive) with UO-31.

Take `CC(C)=CCC[C@]1(C)CC[C@]2(C)C3CCC(=C(C)C)[C@@H](CCCO)[C@]3(C)CC[C@@]2(C)C1` (some centres not stated): the GI50 in the experiment with 786-0 is 32.4 µM (inactive); in the experiment on A549 it was 52.6 µM (inactive); in the experiment with HCT-15, 34 µM; with HOP-62, 88.5 µM (inactive); in the experiment with MDA-MB-231, 29.8 µM (inactive); in the experiment on MDA-N, 89.3 µM (inactive). Besides, the GI50 in the experiment on Malme-3M was > 100 µM (inactive); with NCI-H226, > 100 µM (inactive); with NCI-H460, 54.1 µM (inactive); in the experiment with NCI-H522 it was 17.8 µM (inactive); with OVCAR-5 it was 59.4 µM (inactive); in the experiment with OVCAR-8 it was 30.5 µM (inactive). The GI50 was 43.1 µM (inactive) in the experiment on SF-295; > 100 µM (inactive) in the experiment on SNB-19; 0.0243 µM (active) in the experiment with SNB-75; 53.8 µM (inactive) in the experiment with SW-620; > 100 µM (inactive) in the experiment on UACC-62; 16.9 µM (inactive) with UO-31.

Turning to `C=CC(Cl)(CBr)CCC(Br)C(C)(C)Cl` (configuration not stated), the GI50 in the experiment with 786-0 is 11.7 µM (inactive); in the experiment on A549, 31.3 µM (inactive); in the experiment on HCT-15, 18.3 µM; in the experiment with HOP-62, 16.3 µM (inactive); in the experiment on MDA-MB-231, 14.5 µM (inactive); with MDA-N, 17.7 µM (inactive). Further, the GI50 in the experiment with Malme-3M was 18.7 µM (inactive); in the experiment with NCI-H226 it was > 100 µM (inactive); with NCI-H460, 14.8 µM (inactive); in the experiment on NCI-H522, 10.6 µM (inactive); in the experiment on OVCAR-5, 17.3 µM (inactive); in the experiment on OVCAR-8, 15.6 µM (inactive). For the same compound, the GI50 in the experiment on SF-295 was 14.8 µM (inactive); with SNB-19 it was 16.7 µM (inactive); in the experiment with SNB-75, 19.2 µM (inactive); with SW-620 it was 12.6 µM (inactive); in the experiment with UACC-62, 12.7 µM (inactive); with UO-31, 15.4 µM (inactive).

Consider `Cc1n[nH]c(=O)c2cc(-c3ccccc3)[nH]c12`, for which the GI50 in the experiment on 786-0 was > 100 µM (inactive); in the experiment on A549, 49 µM (inactive); with HCT-15 it was 54.2 µM; in the experiment with HOP-62, > 100 µM (inactive); in the experiment with MDA-MB-231 it was 40.8 µM (inactive); in the experiment on MDA-N it was 73.3 µM (inactive). In addition, the GI50 is 64.1 µM (inactive) in the experiment with Malme-3M; 72.9 µM (inactive) with NCI-H226; 48 µM (inactive) with NCI-H460; 50.7 µM (inactive) in the experiment on OVCAR-5; 72.3 µM (inactive) in the experiment on OVCAR-8; 35.8 µM (inactive) in the experiment with SF-295. The GI50 is > 100 µM (inactive) in the experiment on SNB-19; 39.2 µM (inactive) in the experiment with SNB-75; 46.8 µM (inactive) with SR; > 100 µM (inactive) with SW-620; 33.8 µM (inactive) with UACC-62; 49.3 µM (inactive) with UO-31.

For the compound `O=C1/C(=C2\SCC(=O)N2c2ccccc2)SC(=S)N1c1ccccc1`, the GI50 in the experiment on 786-0 was 47.6 µM (inactive); with A549, 31 µM (inactive); with HCT-15, 43 µM; in the experiment with MDA-MB-231 it was 20.6 µM (inactive); with MDA-N it was 44.2 µM (inactive); in the experiment with Malme-3M, 38.2 µM (inactive). Also, the GI50 was 20.5 µM (inactive) in the experiment on NCI-H226; 39.1 µM (inactive) in the experiment with NCI-H460; > 100 µM (inactive) in the experiment with OVCAR-5; 41.4 µM (inactive) in the experiment with OVCAR-8; 28.1 µM (inactive) in the experiment on SF-295; 50.9 µM (inactive) in the experiment with SNB-19. Further, the results for the GI50 with SR, in the experiment on SW-620 and in the experiment on UACC-62 were 12 µM (inactive), 45.1 µM (inactive) and 55 µM (inactive), respectively.

With `CN(C)CCC(C#N)(c1ccccc1)c1ccccc1`, the GI50 with 786-0 was > 100 µM (inactive); with A549, > 100 µM (inactive); with HCT-15 it was over 100 µM; in the experiment with HOP-62, > 100 µM (inactive); in the experiment with MDA-MB-231 it was 47.5 µM (inactive); in the experiment with MDA-N, 45 µM (inactive). For the same compound, the GI50 was 35.1 µM (inactive) in the experiment on Malme-3M; > 100 µM (inactive) in the experiment on NCI-H226; > 100 µM (inactive) with NCI-H460; 96.6 µM (inactive) in the experiment on NCI-H522; 79.6 µM (inactive) with OVCAR-5; 96.2 µM (inactive) with OVCAR-8. The GI50 in the experiment with SF-295 is 90.6 µM (inactive); in the experiment with SNB-19, > 100 µM (inactive); with SNB-75, 52.6 µM (inactive); in the experiment with SW-620 it was > 100 µM (inactive); in the experiment with UACC-62 it was 73.3 µM (inactive); with UO-31, 65.9 µM (inactive).

With `O=C(O)c1c(Cl)c(Cl)c(Cl)c(Cl)c1C(=O)Nc1ccc2cn[nH]c2c1`, the GI50 is > 100 µM (inactive) in the experiment on 786-0; > 100 µM (inactive) with A549; over 100 µM with HCT-15; 59.6 µM (inactive) in the experiment with HOP-62; > 100 µM (inactive) with MDA-MB-231; > 100 µM (inactive) with MDA-N. The GI50 in the experiment with Malme-3M, in the experiment with NCI-H226, with NCI-H460, in the experiment with NCI-H522, in the experiment with OVCAR-5 and in the experiment with OVCAR-8 was > 100 µM (inactive) throughout. The GI50 with SF-295 was > 100 µM (inactive); in the experiment on SNB-19, > 100 µM (inactive); with SNB-75, 74.8 µM (inactive); in the experiment on SW-620, > 100 µM (inactive); with UACC-62, > 100 µM (inactive); with UO-31 it was > 100 µM (inactive).

`CCc1c2c(nc3ccc(O)cc13)-c1cc3c(c(=O)n1C2)COC(=O)[C@]3(O)CC` [7-ETHYL-10-HYDROXYCAMPTOTHECIN]: the GI50 was < 0.001 µM (active) in the experiment on 786-0; 0.0525 µM (active) with A549; 0.00711 µM in the experiment with HCT-15; < 0.001 µM (active) in the experiment with HOP-62; 0.00344 µM (active) with MDA-MB-231; 0.00206 µM (active) with MDA-N. In addition, the GI50 was < 0.001 µM (active) in the experiment on NCI-H226; < 0.001 µM (active) with NCI-H460; 0.00472 µM (active) in the experiment on OVCAR-5; < 0.001 µM (active) in the experiment with SF-295; < 0.001 µM (active) in the experiment with SNB-19; < 0.001 µM (active) in the experiment on SR. For the same compound, the GI50 with UACC-62 was < 0.001 µM (active).

In the case of `CC(C)OC(=O)Nc1cccc(Cl)c1` [CHLORPROPHAM], the GI50 is > 100 µM (inactive) with 786-0; > 100 µM (inactive) in the experiment with A549; 83.6 µM in the experiment with HCT-15; > 100 µM (inactive) in the experiment with HOP-62; > 100 µM (inactive) in the experiment on MDA-MB-231; > 100 µM (inactive) in the experiment on MDA-N. For the same compound, the GI50 with NCI-H226 was > 100 µM (inactive); with NCI-H460 it was 76.4 µM (inactive); in the experiment on OVCAR-5, > 100 µM (inactive); in the experiment with OVCAR-8 it was > 100 µM (inactive); in the experiment on SF-295 it was > 100 µM (inactive); in the experiment with SNB-19 it was > 100 µM (inactive). The GI50 was 40.7 µM (inactive) in the experiment with SNB-75; > 100 µM (inactive) in the experiment with SR; > 100 µM (inactive) in the experiment on SW-620; > 100 µM (inactive) in the experiment with UACC-62; > 100 µM (inactive) in the experiment on UO-31.
